The conditions of series [1]: in vivo; cited from earlier work.
Series [2] can be described thus: tolerability in healthy mice (body weight). It is filed as in vivo. Conditions: healthy C57BL/6 mice, average weights. The protocol:
As described herein, healthy C57BL/6 mice were intraperitoneally (i.p.) administered daily for 7 consecutive days with GF9 at indicated doses Mouse body weight (BW) was measured daily.

Series [3] deals with LPS-stimulated J774A.1 macrophages (TNF-alpha, IL-6, IL-1beta). Kind of series: In vitro cytokine release by LPS-stimulated macrophages. In kind it is cell-based, mouse. As to conditions: 10 ng/ml after pre-incubation with HDL; LPS 1 μg/ml, 24 h. As for the experimental part:
(§1) The BALB/c murine macrophage cell line J774A.1 (ATCC TIB-67) were obtained from the American Type Culture Collection (ATCC, Manassas, Va.). Macrophages were cultured in 48-well plates (Corning, Cambridge, Mass.) for 24 h at 37° C. in the presence of LPS (1 μg/ml, Escherichia coli 055:B5, Sigma) in combination with 10 ng/ml peptides either pre-incubated or not with HDL. Cell-free supernatants were harvested and stored at −20° C. for later cytokine quantification. TNF-alpha, IL-6, and IL-1beta were assayed using commercial ELISA kits (Pierce Biotechnology, Thermo Scientific, Rockford, Ill.) according to the recommendations of the manufacturer. Results were represented as the mean±S.D. of three independent experiments. Statistical significances in in vitro macrophage uptake assay were determined by two-tailed Student's t test.
as §1, with “Macrophages were cultured in 48-well plates (Corning, Cambridge, Mass.) for 24 h at 37° C. in the presence of LPS (1 μg/ml, Escherichia coli 055:B5, Sigma) in combination with 10 ng/ml peptides either pre-incubated or not with HDL.” left out

Series [4] deals with mouse lipoproteins.
In series [5] the test system is J774A.1 macrophages. Kind of series: In vitro macrophage endocytosis of fluorescent peptides with or without HDL. It is filed as cell-based, mouse. Conditions: in the presence or absence of HDL. As for the experimental part:
The BALB/c murine macrophage cell line J774A.1 (ATCC TIB-67) were obtained from the American Type Culture Collection (ATCC, Manassas, Va.). The macrophage cells were cultured at 37° C. with 5% CO2 in Dulbecco's modified Eagle's medium (DMEM) (Cellgro, Mediatech Inc, Manassas, Va.) with 2 mM glutamine, 100 U/ml penicillin, 0.1 mg/ml streptomycin, and 10% fetal bovine serum (FBS) (Cellgro, Mediatech Inc, Manassas, Va.) and grown to approximately 90% of confluence in 6-well tissue culture plates (Corning, Tewksbury, Mass.). Cells were incubated for varied time periods from 4 to 24 h at 37° C. with fluorescently labeled peptides (pre-incubated with 1 mg/ml HDL) at a concentration of 4 μM rhodamine B (rho-B). After incubation, cells were washed twice with PBS and lysed using Promega passive lysis buffer (Promega, Madison, Wis.). The rho B fluorescence was measured in the lysates with a 540 nm excitation and a 590 nm emission filters using the Gemini EM fluorescence microplate reader (Molecular Devices, Sunnyvale, Calif.). The protein concentration in the lysates was determined using the Bradford reagent (Bio-Rad, Richmond, Calif.) and the SpectraMax 190 microplate reader (Molecular Devices, Sunnyvale, Calif.).
In one embodiment, after reaching target confluency, cells were incubated for 1 h in medium with or without fucoidan (400 μg/mL), BLT-1 (10 μM) or cytochalasin D (40 μM), Cells were subsequently incubated for 4 h and 22 h at 37° C. in medium containing 2 μM of rho B-labeled peptides G-KV21 and G-HV21 (as calculated for rho B) that were pre-incubated with 1 mg/ml HDL. After incubation, cells were washed twice with PBS and lysed using Promega passive lysis buffer. The rho B fluorescence and protein concentration were measured in the lysates as described above.

The nature of series [6]: Mouse tolerability studies. As to conditions: female, C57BL/6, mouse, in vivo, ip, 400 mg/kg; free form, healthy mice. In kind it is in vivo. The protocol:
Naïve, female C57BL/6 mice at 8 to 10 weeks of age (18 to 21 g) from the Jackson Laboratory were used. […] Clinical observations and body weights were made twice daily.
Naïve, female C57BL/6 mice at 8 to 10 weeks of age (18 to 21 g) from the Jackson Laboratory were used. Animals were randomly grouped (5 mice per group) and i.p. injected with 400 mg/kg G-HV21, G-KV21 or G-TE21. Clinical observations and body weights were made twice daily.

The text below walks through data of US20210322508A1, “PEPTIDES AND COMPOSITIONS FOR TARGETED TREATMENT AND IMAGING” (SIGNABLOK, INC., priority 2018, published 2021).

Where only a bound is given, the exact number is not on record here.

On to LQEEDAGEYGCM [LR12], for which, in series [1], the safety in humans result is on record as “safe”.
By MTD is commonly meant the highest dose tested that stayed within the study's limit of toxicity. Low readings indicate poorer tolerability, high ones better tolerability. Regarding `CC(C)C[C@H](NC(=O)[C@H](Cc1ccccc1)NC(=O)CN)C(=O)N[C@@H](CO)C(=O)N[C@@H](CCCCN)C(=O)N[C@@H](CO)C(=O)N[C@@H](CC(C)C)C(=O)N[C@H](C(=O)N[C@@H](Cc1ccccc1)C(=O)N[C@H](C(=O)N[C@@H](CCCCN)C(=O)N1CCC[C@H]1C(=O)N[C@@H](CCC(=O)O)C(=O)N[C@@H](CO)C(=O)N[C@@H](CCC(=O)O)C(=O)N[C@@H](CCCNC(=N)N)C(=O)N[C@@H](CC[S+](C)[O-])C(=O)N1CCC[C@H]1C(=O)N[C@@H](CS)C(=O)N[C@H](C(=O)N[C@@H](CCC(=O)O)C(=O)O)[C@@H](C)O)[C@@H](C)O)C(C)C` (stereo partly drawn) [G-TE21, reference compound], in series [2], the “toxicity in healthy mice” value is recorded as “No toxicity was observed”. Further, the “production of cytokines by LPS-stimulated macrophages” value in series [3] is given as “does not affect on cytokine release by LPS-stimulated macrophages”. Moreover, in series [4], the “behaviour on ultracentrifugation of whole mouse serum” value is listed as “sedimentate with serum proteins”. The “macrophage endocytosis, effect of sulfoxidized methionine residue” value in series [5] is recorded as “does not promote macrophage endocytosis neither in the presence or absence of HDL”. This compound also showed an MTD in series [6] not below 400 mg/kg.
